# Measurements as given in US6727237B2, “Inhibitors of bacterial NAD synthetase” (priority 1998, dated 2004).
# Molecular target: T1, bacterial NAD synthetase enzyme (Bacillus subtilis, UniProt P08164)
# T1 sequence (P08164 2-272 limits assumed): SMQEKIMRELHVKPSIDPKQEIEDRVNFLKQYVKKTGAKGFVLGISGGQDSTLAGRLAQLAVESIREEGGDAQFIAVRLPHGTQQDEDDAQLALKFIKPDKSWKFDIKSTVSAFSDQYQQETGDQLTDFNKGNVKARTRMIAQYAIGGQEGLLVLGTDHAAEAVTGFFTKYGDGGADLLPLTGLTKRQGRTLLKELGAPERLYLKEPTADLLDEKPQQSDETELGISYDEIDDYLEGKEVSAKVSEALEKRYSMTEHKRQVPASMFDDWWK
# Assay: biochemical
# Type: biochemical
# Conditions: not given
SMILES,IC50 [µM],inhibition at 100 µM [%],inhibition at 200 µM [%]
C[N+](C)(C)c1ccc(C(=O)OCCCCCCCc2cc3cc(Oc4ccccc4)ccc3[nH]2)cc1 [Compound 887],25,–,–
CC(C)c1ccc2[nH]c(CCCCCCCCOC(=O)Cc3ccc[n+](C)c3)cc2c1 [Compound 936],60,97.8,–
CC(=O)c1ccc2[nH]c(CCCCCCCOC(=O)c3cccc([N+](C)(C)C)c3)cc2c1 [Compound 878],80,96.4,–
CC(=O)C=Cc1ccc(OCCCCCCCCOC(=O)Cc2ccc([N+](C)(C)C)cc2)cc1 [Compound 1081],67.5,–,84

# Same assay, conditions: compound at 0.05 mM
row,SMILES,% Inhibition [%]
1,COC(=O)c1cc2cc(OCc3ccccc3)ccc2n1CCCCCCCOC(=O)Cc1ccc(N(C)C)cc1 [Compound 964],1.18

# Same assay, conditions: compound at 0.1 mM (Table 314)
row,SMILES,% Inhibition [%]
1,COC(=O)c1cc2cc(OCc3ccccc3)ccc2n1CCCCCCCCCOC(=O)c1ccc[n+](C)c1 [Compound 978],80.31
2,Fc1ccc2[nH]c(CCCCCCC[n+]3ccccc3)cc2c1 [Compound 346],42.57

# Same assay, conditions: compound at 0.2 mM (Table 312A)
row,SMILES,% Inhibition [%]
1,c1ccc(C(c2ccccc2)(c2ccccc2)c2ccc3[nH]c(CCCCCC[n+]4cccc5ccccc54)cc3c2)cc1 [Compound 447],2.30
2,Cc1ccc2[nH]c(CCCCCCCC[n+]3ccccc3)cc2c1 [Compound 299],49.13
3,Fc1cc(F)c2[nH]c(CCCCC[n+]3ccccc3)cc2c1 [Compound 302],21.48
4,COc1ccc2c(ccn2CCCCCCOC(=O)c2ccc[n+](C)c2)c1 [Compound 762],40.05
5,O=[N+]([O-])c1ccc2[nH]c(CCCCCCCC[n+]3ccc4ccccc4c3)cc2c1 [Compound 551],50.05
6,CC(=O)c1ccc2[nH]c(CCCCCCC[n+]3ccccc3)cc2c1 [Compound 370],41.34
7,CC(=O)c1ccc2[nH]c(CCCCCCC[n+]3ccc4ccccc4c3)cc2c1 [Compound 586],2.01

# Same assay, conditions: compound at 0.2 mM (Table 312B)
row,SMILES,% Inhibition [%]
1,CN(C)c1ccc(CC(=O)OCCCCCCCCOc2ccccc2[N+](=O)[O-])cc1 [Compound 1024],45
2,CN(C)c1ccc(CC(=O)OCCCCCCCCOc2ccc(C=CC(=O)c3ccccc3)cc2)cc1 [Compound 1034],30
3,CC(=O)c1ccccc1OCCCCCCCCOC(=O)c1ccc[n+](C)c1 [compound 1056],18
4,CN(C)c1ccc(CC(=O)OCCCCCCCCOc2ccccc2N2CCOCC2)cc1 [Compound 1047],45

# System: Staphylococcus epidermitis
# Assay: Bacterial growth inhibition screen in LB media (absorbance 595 nm), percent inhibition
# Conditions: S. epidermitis; concentration screened 10 uM
row,SMILES,% Inhibition [%]
1,CN(C)c1cccc(C(=O)OCCCCCCn2ccc3cc([N+](=O)[O-])ccc32)c1 [Compound 838],17.65
2,FC(F)(F)c1ccc2cc(CCCCCCC[n+]3cccc4ccccc43)[nH]c2c1 [Compound 400],5.50
3,CC(C)c1ccc2[nH]c(CCCCCCCOC(=O)c3ccncc3)cc2c1 [Compound 703],4.29
4,CN(C)c1ccc(C(=O)OCCCCCCCCCn2ccc3cc([N+](=O)[O-])ccc32)cc1 [Compound 847],19.84
5,CN(C)c1cccc(C(=O)OCCCCCCCc2cc3cc(Oc4ccccc4)ccc3[nH]2)c1 [Compound 616],5.59
6,O=C(OCCCCCCCc1cc2cc(C(=O)c3ccccc3)ccc2[nH]1)c1ccncc1 [Compound 709],12.94
7,C[n+]1cc(C(=O)OCCCCn2ccc3cc(OCc4ccccc4)ccc32)cc2ccccc21 [Compound 825],83.13
8,c1ccc(Oc2ccc3[nH]c(CCC[n+]4cccc5ccccc54)cc3c2)cc1 [Compound 456],3.69
9,O=C(OCCCCCCCc1cc2cc(C(F)(F)F)ccc2[nH]1)C(c1ccccc1)c1ccccc1 [Compound 652],2.52
10,O=C(OCCCCCCCCc1cc2cc(Oc3ccccc3)ccc2[nH]1)c1cccnc1 [Compound 686],22.14
11,O=[N+]([O-])c1cc([N+](=O)[O-])c2[nH]c(CCCCC[n+]3cccc4ccccc43)cc2c1 [Compound 416],2.09
12,O=C(OCCCCCCCc1cc2cc(Oc3ccccc3)ccc2[nH]1)C(c1ccccc1)c1ccccc1 [Compound 658],1.43
13,CC(C)c1ccc2[nH]c(CCCCCCCCOC(=O)c3ccncc3)cc2c1 [Compound 704],19.07
14,CC(C)c1ccc2[nH]c(CCCCCCCCOC(=O)c3cccnc3)cc2c1 [Compound 668],3.07
15,O=C(OCCCCCCCCc1cc2cc(Oc3ccccc3)ccc2[nH]1)c1ccncc1 [Compound 701],3.88
16,O=C(OCCCCCCCc1cc2cc(Oc3ccccc3)ccc2[nH]1)c1cccnc1 [Compound 661],39.31
17,Fc1cc(F)c2[nH]c(CCCCCCC[n+]3cccc4ccccc43)cc2c1 [Compound 412],7.73
18,CC(=O)c1ccc2[nH]c(CCCCCCCCOC(=O)c3cccnc3)cc2c1 [Compound 674],7.70
19,C[n+]1cccc(C(=O)OCCCCn2ccc3cc([N+](=O)[O-])ccc32)c1 [Compound 863],4.72
20,CN(C)c1ccc(C(=O)OCCCCCn2ccc3cc([N+](=O)[O-])ccc32)cc1 [Compound 843],2.20
21,CN(C)c1ccc(C(=O)OCCCCCCCc2cc3cc(C(=O)c4ccccc4)ccc3[nH]2)cc1 [Compound 646],1.09
22,c1ccc2[nH]c(CCCC[n+]3cccc4ccccc43)cc2c1 [Compound 391],5.29
23,c1ccc(Oc2ccc3[nH]c(CCCCCC[n+]4cccc5ccccc54)cc3c2)cc1 [Compound 459],16.09
24,CC(C)c1ccc2[nH]c(CCCCCCCOC(=O)c3ccccc3-c3ccccc3)cc2c1 [Compound 631],12.19
25,O=C(CCc1cccnc1)OCCCCCCCCc1cc2cc([N+](=O)[O-])ccc2[nH]1 [Compound 728],13.28
26,O=C(OCCCCc1cc2cc(Oc3ccccc3)ccc2[nH]1)c1cccnc1 [Compound 684],10.83
27,O=C(OCCCCc1cc2ccc(C(F)(F)F)cc2[nH]1)c1cccnc1 [Compound 681],4.22

# Same assay, conditions: S. epidermitis; concentration screened 100 uM
row,SMILES,% Inhibition [%]
1,O=C(OCCCCCCCCc1cc2cc(Oc3ccccc3)ccc2[nH]1)c1ccccc1-c1ccccc1 [Compound 623],34.17
2,O=C(OCCCCc1cc2cc(C(F)(F)F)ccc2[nH]1)c1ccccc1-c1ccccc1 [Compound 612],10.24
3,CN(C)c1ccc(C(=O)OCCCCc2cc3cc(C(F)(F)F)ccc3[nH]2)cc1 [Compound 609],7.35
4,O=C(c1ccccc1)c1ccc2[nH]c(CCCCCCCCOC(=O)c3ccccc3-c3ccccc3)cc2c1 [Compound 650],7.73
5,CC(C)c1ccc2[nH]c(CCCCCCCCOC(=O)c3ccc(N(C)C)cc3)cc2c1 [Compound 629],6.66
6,CC(=O)c1ccc2[nH]c(CCCCOC(=O)C(c3ccccc3)c3ccccc3)cc2c1 [Compound 669],11.24
7,O=C(OCCCCc1cc2cc(Oc3ccccc3)ccc2[nH]1)C(c1ccccc1)c1ccccc1 [Compound 657],37.12
8,CC(=O)c1ccc2[nH]c(CCCCOC(=O)c3ccccc3-c3ccccc3)cc2c1 [Compound 639],7.41
9,CC(C)c1ccc2[nH]c(CCCCOC(=O)c3cccc(N(C)C)c3)cc2c1 [Compound 624],19.16
10,CN(C)c1cccc(C(=O)OCCCCc2cc3cc(C(F)(F)F)ccc3[nH]2)c1 [Compound 606],9.17
